Values after ≈ are worked out from the molar mass of the structure shown.
Experiments:
[1] = test system: N. gonorrhoeae ATCC 49226; assay: MIC on GC agar plates; format: cell-based, Neisseria gonorrhoeae; details: Neisseria gonorrhoeae, ATCC49226, read-out: MIC
Procedure: An initial screening for bacterial inhibition was performed by the agar diffusion method. […] DMSO and TSB were included as negative controls. Gentamicin and trimethoprim sulfamethoxazole were included as a positive control for growth inhibition. Derivatives showing growth inhibition were tested at least twice before being selected for the microdilution test. For N. gonorrhoeae, the agar diffusion method was also used for screening with some modifications. […] Penicillin and tetracycline were used as controls. […] Briefly, GC agar supplemented with 1% isovitalex was prepared with increasing concentrations of the new compounds and inoculated with 10 µL of a bacterial suspension (1 × 10^4 CFU). The lowest concentration of the compound that inhibited bacterial growth was determined as the MIC. Bacterial growth was examined and verified using the oxidase test. The experiments were performed in duplicate in at least two independent assays.

[2] = test system: CCRF-CEM; assay: cells; details: Homo sapiens, 48 h; for CC50: read-out: LC50
[3] = test system: K-562; assay: cells; details: Homo sapiens, K562, 48 h; for GI50: K-562, 48 h; for CC50: read-out: LC50
[4] = test system: SR; assay: cells; details: Homo sapiens, 48 h; for CC50: read-out: LC50
[5] = test system: EKVX; assay: cells; details: Homo sapiens, 48 h; for CC50: read-out: LC50
[6] = test system: HOP-62; assay: cells; details: Homo sapiens, HOP-62, 48 h; for CC50: read-out: LC50
[7] = test system: NCI-H322M; assay: cells; details: Homo sapiens, 48 h; for CC50: read-out: LC50
[8] = test system: HCC-2998; assay: cells; details: Homo sapiens, HCC 2998, 48 h; for CC50: read-out: LC50
[9] = test system: SW-620; assay: cells; details: Homo sapiens, SW-620, 48 h; for CC50: read-out: LC50
[10] = test system: SF-268; assay: cells; details: Homo sapiens, SF-268, 48 h; for CC50: read-out: LC50
[11] = test system: SNB-19; assay: cells; details: Homo sapiens, SNB-19, 48 h; for CC50: read-out: LC50
[12] = test system: MALME-3M; assay: cells; details: Homo sapiens, 48 h; for CC50: read-out: LC50
[13] = test system: MDA-MB-435; assay: cells; details: Homo sapiens, MDA-MB-435, 48 h; for CC50: read-out: LC50
[14] = test system: SK-MEL-28; assay: cells; details: Homo sapiens, SK-MEL-28, 48 h; for CC50: read-out: LC50
[15] = test system: UACC-62; assay: cells; details: Homo sapiens, UACC-62, 48 h; for CC50: read-out: LC50
[16] = test system: IGROV1; assay: cells; details: Homo sapiens, IGROV-1, 48 h; for CC50: read-out: LC50
[17] = test system: OVCAR-8; assay: cells; details: Homo sapiens, OVCAR-8, 48 h; for CC50: read-out: LC50
[18] = test system: NCI/ADR-RES; assay: cells; details: Homo sapiens, 48 h; for CC50: read-out: LC50
[19] = test system: ACHN; assay: cells; details: Homo sapiens, 48 h; for CC50: read-out: LC50
[20] = test system: CAKI-1; assay: cells; details: Homo sapiens, CAKI-1, 48 h; for CC50: read-out: LC50
[21] = test system: RXF 393; assay: cells; details: Homo sapiens, RXF 393, 48 h
[22] = test system: PC-3; assay: cells; details: Homo sapiens, PC-3, 48 h; for CC50: read-out: LC50
[23] = test system: HS 578T; assay: cells; details: Homo sapiens, 48 h; for CC50: read-out: LC50
[24] = test system: BT-549; assay: cells; details: Homo sapiens, BT-549, 48 h; for CC50: read-out: LC50
[25] = Hemolytic activity, spectrophotometric; format: cell-based, human; details: human, human red blood cells (huRBC), 5% hematocrit, 200 μg/mL, 37 °C
[26] = test system: OVCAR-3; assay: cells; details: Homo sapiens, OVCAR-3, 48 h

SMILES: Cc1ccc(C2CC(c3ccc(Nc4nc(NCCO)nc(Nc5ccc(Cl)cc5)n4)cc3)=Nc3c(N)nc(N)nc3N2)cc1 (centres unmarked) [33b]
- MIC [1]: 0.5 µg/mL (≈ 0.802 µM)
- GI50 [2]: 1670 nM
- CC50 [2]: > 100 µM
- GI50 [3]: 1340 nM
- CC50 [3]: 24.9 µM
- GI50 [4]: 1680 nM
- CC50 [4]: > 100 µM
- GI50 [5]: 1550 nM
- CC50 [5]: 5.71 µM
- GI50 [6]: 1680 nM
- CC50 [6]: 6.08 µM
- GI50 [7]: 1590 nM
- CC50 [7]: 5.42 µM
- GI50 [8]: 1550 nM
- CC50 [8]: 5.56 µM
- GI50 [9]: 1790 nM
- CC50 [9]: 6.12 µM
- GI50 [10]: 1810 nM
- CC50 [10]: 7.35 µM
- GI50 [11]: 1570 nM
- CC50 [11]: 5.75 µM
- GI50 [12]: 1700 nM
- CC50 [12]: 6.69 µM
- GI50 [13]: 1730 nM
- CC50 [13]: 5.68 µM
- GI50 [14]: 1770 nM
- CC50 [14]: 5.65 µM
- GI50 [15]: 1820 nM
- CC50 [15]: 6.33 µM
- GI50 [16]: 1650 nM
- CC50 [16]: 5.98 µM
- GI50 [17]: 1800 nM
- CC50 [17]: 7.55 µM
- GI50 [18]: 1.73 µM
- CC50 [18]: 6.97 µM
- GI50 [19]: 1720 nM
- CC50 [19]: 5.56 µM
- GI50 [20]: 1640 nM
- CC50 [20]: 5.73 µM
- GI50 [21]: 1450 nM
- GI50 [22]: 1740 nM
- CC50 [22]: 7.43 µM
- GI50 [23]: 1790 nM
- CC50 [23]: > 100 µM
- GI50 [24]: 1730 nM
- CC50 [24]: 5.69 µM

SMILES: Nc1nc(N)c2c(n1)NC(c1ccccc1)CC(c1ccc(Nc3nc(NCCO)nc(Nc4ccc(Cl)cc4)n3)cc1)=N2 (centres unmarked) [33a]
- MIC [1]: 1 µg/mL (≈ 1.64 µM)
- hemolysis at 24 h, 200 µg/mL [25]: 8%
- GI50 [2]: 950 nM
- CC50 [2]: > 100 µM
- GI50 [3]: 1010 nM
- CC50 [3]: > 100 µM
- GI50 [4]: 550 nM
- GI50 [5]: 1640 nM
- CC50 [5]: 6.12 µM
- GI50 [6]: 1740 nM
- CC50 [6]: 6.07 µM
- GI50 [7]: 1630 nM
- CC50 [7]: 5.67 µM
- GI50 [8]: 1680 nM
- CC50 [8]: 5.72 µM
- GI50 [9]: 1870 nM
- CC50 [9]: 6.48 µM
- GI50 [10]: 1870 nM
- GI50 [11]: 1580 nM
- CC50 [11]: 5.64 µM
- GI50 [12]: 1760 nM
- GI50 [13]: 1740 nM
- CC50 [13]: 5.78 µM
- GI50 [14]: 1730 nM
- CC50 [14]: 5.64 µM
- GI50 [15]: 1840 nM
- CC50 [15]: 6 µM
- GI50 [16]: 1560 nM
- CC50 [16]: 6.29 µM
- GI50 [17]: 1460 nM
- CC50 [17]: 6.59 µM
- GI50 [18]: 4.33 µM
- CC50 [18]: > 100 µM
- GI50 [19]: 1950 nM
- CC50 [19]: 9.76 µM
- GI50 [20]: 2300 nM
- CC50 [20]: 24.8 µM
- GI50 [21]: 1630 nM
- GI50 [22]: 1590 nM
- GI50 [23]: 1980 nM
- CC50 [23]: > 100 µM
- GI50 [24]: 1770 nM
- CC50 [24]: 5.81 µM

SMILES: COc1cc(/C=C/C(=O)c2ccc(S(=O)(=O)NCCNc3nc(N(C)C)nc(N4CCOCC4)n3)cc2)cc(OC)c1OC [23d]
- MIC [1]: > 500 µg/mL
- hemolysis at 24 h, 200 µg/mL [25]: 0.2%
- GI50 [2]: 2070 nM
- CC50 [2]: > 100 µM
- GI50 [3]: 1460 nM
- CC50 [3]: > 100 µM
- GI50 [4]: 1880 nM
- CC50 [4]: > 100 µM
- GI50 [5]: 3740 nM
- CC50 [5]: 82.3 µM
- GI50 [6]: 2660 nM
- CC50 [6]: 32.1 µM
- GI50 [7]: 7820 nM
- CC50 [7]: 48.5 µM
- GI50 [8]: 1800 nM
- CC50 [8]: 5.9 µM
- GI50 [9]: 1900 nM
- CC50 [9]: 7.42 µM
- GI50 [10]: 3160 nM
- CC50 [10]: 77.2 µM
- GI50 [11]: 4280 nM
- CC50 [11]: 41.7 µM
- GI50 [12]: 1970 nM
- CC50 [12]: 9.42 µM
- GI50 [13]: 1900 nM
- CC50 [13]: 8.46 µM
- GI50 [14]: 2120 nM
- CC50 [14]: 13 µM
- GI50 [15]: 2140 nM
- CC50 [15]: 22.8 µM
- GI50 [16]: 2600 nM
- CC50 [16]: 50.1 µM
- GI50 [26]: 2020 nM
- CC50 ([26]; read-out: LC50): 8.84 µM
- GI50 [17]: 2300 nM
- CC50 [17]: 36.5 µM
- GI50 [19]: 1780 nM
- CC50 [19]: 6.75 µM
- GI50 [20]: 10600 nM
- CC50 [20]: 51 µM
- GI50 [21]: 1220 nM
- CC50 ([21]; read-out: LC50): 8.63 µM
- GI50 [22]: 3760 nM
- CC50 [22]: > 100 µM
- GI50 [23]: 2290 nM
- CC50 [23]: > 100 µM
- GI50 [24]: 2010 nM
- CC50 [24]: 6.91 µM
